Assay results: patent publication US20130029942A1, “COMPOUNDS AND THERAPEUTICAL USES THEREOF” (Myrexis, Inc., priority 2003, published 2013)
Where a name gives a salt, the structure may show the parent alone. Read-outs that look alike come from different tables or passages of the source.

How the values were obtained:
tubulin = tubulin (Bos taurus, UniProt P81947+Q6B856); assay: Inhibition of tubulin polymerization (DAPI fluorescence); assay type: biochemical; conditions: MAP-rich tubulin, 30 minutes at 37° C.
Method: Lyophilized tubulin (Cytoskeleton #ML113, 1 mg, MAP-rich) was assayed for the effect of the test compound on tubulin polymerization as measured by change in fluorescence for 4′,6-diamidino-2-phenylindole (DAPI) (Barron, D. M. et al. Analytical Biochem., 2003, 315, 49-56). 1 μl of serial dilutions of each test compound (from 100×DMSO stock) was added in 96 well plate format and preincubated for 30 minutes with 94 ul of the non-GTP supplemented tubulin supernatant. 5 μl of DAPI/GTP solution was added to initiate polymerization and incubated for 30 minutes at 37° C. Fluorescence was read with excitation 350 nm, emission wavelength 485 nm on a Tecan Spectraflour Plus. Polymerized tubulin (DMSO and with the tubulin stabilizer Taxol® (paclitaxel)) gives a higher DAPI fluorescence as compared to non-polymerized tubulin (vinblastine and colchicine used to determine baseline).

T-47D cells = assay: Caspase cascade activation / induction of apoptosis in T-47D cells (fluorogenic N-(Ac-DEVD)-N'-ethoxycarbonyl-R110 substrate); assay type: cell-based, human; conditions: Homo sapiens, T47D
[1] = system: P388 murine leukemia cell line; assay: P388 cytotoxicity (ATP-Lite, 72 hours); assay type: cell-based; conditions: Mus musculus, P388, 72 hours
Method: A P388 murine leukemia cell line was obtained from NCI, Frederick, Md. P388 cells were cultured in RPMI-1640 supplemented with 10% fetal bovine serum, 2 mM Glutamax, 1 mM sodium pyruvate, 0.1 mM non-essential amino acids and 10 mM HEPES. Cells were grown at 37° C. in a humidified 5% CO2 atmosphere. Exponentially growing P388 cells were plated at 5,000 cells/well in a 96-well flat-bottomed microtiter plate (Corning, Costar #3595). […] Cellular viability was determined 72 hours later by measuring intracellular ATP with ATP-Lite assay system. The effect of compounds on cell viability was calculated by comparing the ATP levels of cells exposed to test compound with those of cells exposed to DMSO. […] Data was analyzed by Prism software (GraphPad; San Diego, Calif.) by fitting it to a sigmoidal dose response curve.

[2] = T-47D, 24 hr, read-out: T-47D (24 hr) EC50
[3] = Table III, time not given, repeats 24 hr or 48 hr T-47D values of Table I, read-out: Caspase activation (EC50 nM)
[4] = T-47D, 48 hr, read-out: T-47D (48 hr) EC50
[5] = 24 h, read-out: T-47D (24 hr) EC50 (nM)
[6] = read-out: Caspase activation (EC50 nM)

Sequence of tubulin (P81947 whole entry): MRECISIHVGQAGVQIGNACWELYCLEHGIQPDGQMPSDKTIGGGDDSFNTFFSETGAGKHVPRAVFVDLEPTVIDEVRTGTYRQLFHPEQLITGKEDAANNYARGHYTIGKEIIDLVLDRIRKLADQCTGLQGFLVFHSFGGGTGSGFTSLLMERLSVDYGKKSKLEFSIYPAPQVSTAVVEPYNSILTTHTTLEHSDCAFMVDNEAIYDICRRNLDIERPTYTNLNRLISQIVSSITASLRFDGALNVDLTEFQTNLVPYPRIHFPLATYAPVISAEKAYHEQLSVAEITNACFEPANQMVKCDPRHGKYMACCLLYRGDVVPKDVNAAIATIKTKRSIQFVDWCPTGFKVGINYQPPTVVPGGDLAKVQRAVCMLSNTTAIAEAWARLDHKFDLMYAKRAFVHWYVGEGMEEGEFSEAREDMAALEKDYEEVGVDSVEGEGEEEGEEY
Sequence of tubulin (Q6B856 whole entry): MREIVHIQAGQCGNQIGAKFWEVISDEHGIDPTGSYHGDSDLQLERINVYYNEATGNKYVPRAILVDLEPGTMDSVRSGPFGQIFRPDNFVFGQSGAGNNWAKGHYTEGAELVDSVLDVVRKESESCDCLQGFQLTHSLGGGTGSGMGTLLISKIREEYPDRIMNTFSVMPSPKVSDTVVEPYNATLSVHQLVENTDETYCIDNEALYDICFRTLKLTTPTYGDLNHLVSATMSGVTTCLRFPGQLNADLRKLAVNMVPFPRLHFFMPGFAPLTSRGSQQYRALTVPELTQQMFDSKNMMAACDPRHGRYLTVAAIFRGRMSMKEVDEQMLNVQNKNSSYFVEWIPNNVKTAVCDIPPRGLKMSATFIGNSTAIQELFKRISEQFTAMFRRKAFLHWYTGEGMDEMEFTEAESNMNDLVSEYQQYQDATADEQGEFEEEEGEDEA

SMILES	IC50 (tubulin)	EC50 (T-47D cells; [3])	IC50 [1]	also measured
COc1ccc(N(C)c2ncnc3ccccc23)cc1 [Example 34, (4-Methoxy-phenyl)-methyl-quinazolin-4-yl-amine]	1 µM			
Cc1ccc(N(C)c2nc(Cl)nc3ccccc23)cc1 [Example 2, (2-Chloro-quinazolin-4-yl)-(4-methyl-phenyl)-methyl-amine]	3 µM	31 nM		EC50 (T-47D cells; [2]): 31 nM
COc1ccc(N(C)c2nccc3ccccc23)cc1 [Example 65, (Isoquinolin-1-yl)-(4-methoxy-phenyl)-methyl-amine]	10 µM	599 nM		EC50 (T-47D cells; [4]): 599 nM
COc1ccc(N(C)c2nc(Cl)nc3ccccc23)c(OC)c1 [Example 41, (2-Chloro-quinazolin-4-yl)-(2,4-dimethoxy-phenyl)-methyl-amine]	< 1 µM	20 nM		EC50 (T-47D cells; [4]): 20 nM
CN(c1ccccc1)c1nc(Cl)nc2ccccc12 [Example 6, (2-Chloro-quinazolin-4-yl)-phenyl-methyl-amine]	4 µM			EC50 (T-47D cells; [5]): 219 nM; EC50 (T-47D cells; [6]): 219 nM
COc1ccc(N(C)c2nc(C)nc3ccccc23)cc1 [Example 72, (4-Methoxy-phenyl)-methyl-(2-methyl-quinazolin-4-yl)-amine hydrochloride]	< 1 µM			EC50 (T-47D cells; [5]): 2 nM; EC50 (T-47D cells; 48 h, read-out: T-47D (48 hr) EC50 (nM)): 2 nM; EC50 (T-47D cells; [6]): 2 nM
COc1ccc(N(C)c2ncnc3c2CCCC3)cc1 [Example 25, (5,6,7,8-Tetrahydro-quinazolin-4-yl)-(4-methoxy-phenyl)-methyl-amine]	2 µM	42 nM		EC50 (T-47D cells; [4]): 42 nM
COc1ccccc1N(C)c1nc(Cl)nc2ccccc12 [Example 44, (2-Chloro-quinazolin-4-yl)-(2-methoxy-phenyl)-methyl-amine]	10 µM	501 nM		EC50 (T-47D cells; [4]): 501 nM
Cc1ccc(N(C)c2ncnc3ccccc23)cc1 [Example 35, (4-Methyl-phenyl)-methyl-quinazolin-4-yl-amine]	4 µM	141 nM		EC50 (T-47D cells; [2]): 141 nM
COc1ccc(OC)c(N(C)c2nc(Cl)nc3ccccc23)c1 [Example 42, (2-Chloro-quinazolin-4-yl)-(2,5-dimethoxy-phenyl)-methyl-amine]	5 µM	282 nM		EC50 (T-47D cells; [2]): 282 nM; EC50 (T-47D cells; [4]): 265 nM
COc1ccc(N(C)c2nc(C)nc3sccc23)cc1 [Example 176, (4-Methoxy-phenyl)-methyl-(2-methyl-thieno[2,3-d]pyrimidin-4-yl)-amine]			3 nM	
CNCc1nc(N(C)c2ccc(OC)cc2)c2ccccc2n1 [Example 233, (4-Methoxy-phenyl)-methyl-(2-methylaminomethyl-quinazolin-4-yl)-amine]			1100 nM	
COc1c(Cl)cc(N(C)c2nc(CCl)nc3ccccc23)cc1Cl [Example 251, (2-Chloromethyl-quinazolin-4-yl)-(3,5-dichloro-4-methoxy-phenyl)-methyl-amine]			2080 nM	
COc1ccc(N(C)c2nc(CN)nc3ccccc23)cc1Cl [Example 240, (2-Aminomethyl-quinazolin-4-yl)-(3-chloro-4-methoxy-phenyl)-methyl-amine]			6 nM	
COc1ccc(OC)c(Nc2nc(Cl)nc3ccccc23)c1 [Example 31, (2-Chloro-quinazolin-4-yl)-(2,5-dimethoxy-phenyl)-amine]	10 µM	317 nM		EC50 (T-47D cells; [2]): 317 nM; EC50 (T-47D cells; [4]): 563 nM
COc1ccc(N(C)c2nc(C)nc3ccc(N)cc23)cc1F [Example 215, N^4-(3-Fluoro-4-methoxy-phenyl)-2,N^4-dimethyl-quinazoline-4,6-diamine]			3 nM	
COc1ccc(N(C)c2nc(NCCN)nc3ccc(OC)cc23)cc1 [Example 175, N^2-(2-Amino-ethyl)-6-methoxy-N^4-(4-methoxy-phenyl)-N^4-methyl-quinazoline-2,4-diamine]			5000 nM	
COc1ccc(N(C)c2nc(NC/C=C(\C)CCC=C(C)C)nc3ccccc23)cc1 [Example 13, N^2-(3,7-Dimethyl-octa-2,6-dienyl)-N^4-(4-methoxy-phenyl)-N^4-methyl-quinazoline-2,4-diamine]	6 µM	260 nM		EC50 (T-47D cells; [2]): 260 nM
COc1cccc(N(C)c2nc(Cl)nc3ccccc23)c1 [Example 43, (2-Chloro-quinazolin-4-yl)-(3-methoxy-phenyl)-methyl-amine]	2 µM	34 nM		EC50 (T-47D cells; [4]): 34 nM
CCOC(=O)CNc1nc2c(c(N(C)c3ccc(OC)cc3)n1)CCC2 [Example 202, {4-[(4-Methoxy-phenyl)-methyl-amino]-6,7-dihydro-5H-cyclopentapyrimidin-2-ylamino}-acetic acid ethyl ester]			300 nM	
CNc1nc2c(c(N(C)c3ccc(OC)cc3)n1)CCC2 [Example 200, N^4-(4-Methoxy-phenyl)-N^2,N^4-dimethyl-6,7-dihydro-5H-cyclopentapyrimidine-2,4-diamine]			7 nM	
CNc1nc2c(c(N(C)c3ccc(OC)cc3)n1)CCCCC2 [Example 201, N4-(4-Methoxy-phenyl)-N2,N4-dimethyl-6,7,8,9-tetrahydro-5H-cycloheptapyrimidine-2,4-diamine]			76 nM	
CCOc1ccc(N(C)c2nc(C)nc3ccc(Br)cc23)cc1F [Example 246, (6-Bromo-2-methyl-quinazolin-4-yl)-(4-ethoxy-3-fluoro-phenyl)-methyl-amine]			11 nM	
COc1ccc(N(C)c2nc(Cl)nc3cc(OC)c(OC)cc23)cc1 [Example 20, (2-Chloro-6,7-dimethoxyquinazolin-4-yl)-(4-methoxy-phenyl)-methyl-amine]	3 µM	161 nM		EC50 (T-47D cells; [2]): 161 nM
CCOc1ccc(N(C)c2nc(CN)nc3cccc(F)c23)c(F)c1 [Example 250, (2-Aminomethyl-5-fluoro-quinazolin-4-yl)-(4-ethoxy-2-fluoro-phenyl)-methyl-amine]			22 nM	
COc1ccc(N(C)c2nc(OC(C)C)nc3cccc(F)c23)cc1 [Example 198, (5-Fluoro-2-isopropoxy-quinazolin-4-yl)-(4-methoxy-phenyl)-methyl-amine]			3 nM	
COC(=O)COc1ccc(N(C)c2nc(C)nc3ccccc23)cc1 [Example 143, {4-[Methyl-(2-methyl-quinazolin-4-yl)-amino]phenoxy}-acetic acid methyl ester]			2200 nM	
COc1ccc(N(C)c2nc(CNC(C)=O)nc3ccccc23)cc1 [Example 203, N-{4-[(4-Methoxy-phenyl)-methyl-amino]-quinazolin-2-ylmethyl}-acetamide]			19 nM	
